Target: T1, human type 5 17β-HSD (Homo sapiens, UniProt P42330)
T1 construct: encodes a protein having 323 amino acids with a calculated molecular weight of 36,844 daltons; expressed in transfected cells; host or cells: human embryonal kidney 293 cells (ATCC CRL 1573), transient transfection with pCMV vector
T1 sequence (P42330 1-323 H5Q): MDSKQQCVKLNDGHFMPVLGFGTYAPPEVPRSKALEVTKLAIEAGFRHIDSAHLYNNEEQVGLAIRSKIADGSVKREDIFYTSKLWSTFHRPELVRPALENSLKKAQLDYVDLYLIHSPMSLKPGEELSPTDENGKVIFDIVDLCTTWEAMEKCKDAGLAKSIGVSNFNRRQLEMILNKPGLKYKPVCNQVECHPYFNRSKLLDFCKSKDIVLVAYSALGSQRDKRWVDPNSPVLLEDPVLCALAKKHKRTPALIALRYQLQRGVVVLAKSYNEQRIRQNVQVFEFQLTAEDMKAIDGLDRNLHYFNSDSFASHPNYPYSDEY
Assay: Assay of enzymatic activity (substrate specificity) in 293 cells transfected with human type 5 17β-HSD
Assay type: cell-based
Details: 0.1 μM 14C-labeled substrate, 1 hour incubation, transfected embryonal kidney (293) cells, FIG. 1A
Method: The concentration of each substrate was 0.1 μM. […] The substrates, progesterone (P) and Δ^4 -dione, were added at a concentration of 0.1 μM;
The vectors were transfected using the calcium phosphate procedure described by Kingston, R. E., In: Current Protocols in Molecular Biology, Ausubel et al. eds., pp. 9.1.1-9.1.9, John Wiley & Sons, N.Y. (1987) and used 1 to 10 μg of recombinant plasmid DNA per 10^6 cells. The total amount of DNA is kept at 10 μg of plasmid DNA per 10^6 cells by completing with pCMV plasmid without insert. The cells were initially plated at 10^4 cells/cm^2 in Falcon® culture flasks and grown in Dulbecco's modified Eagle's medium containing 10% (vol/vol) fetal bovine serum (hyclone, Logan, Utah) under a humidified atmosphere of air/CO^2 (95%/5%) at 37° C. and supplemented with 2 mM L-glutamine, 1 mM sodium pyruvate, 100 IU penicillin/ml, and 100 μbg streptomycin sulfate/ml.
See also Lachance et al., J. Biol. Chem., 265:20469-20475 (1990). […] After incubation for 1 hour, the steroids were extracted twice with 2 ml of ether. The organic phase was pooled and evaporated to dryness. The steroids were solubilized in 50 μl of dichloromethane, applied to a Silica gel 60 thin layer chromatography (TLC) plate (Merck, Darmstad, Germany) and then separated by migration in the toluene-acetone (4:1) solvent system (Luu-The, V. et al., J. Invest. Dennatol., 102:221-226 (1994) which is herein incorporated by reference).
As described above, the enzymatic activity of the type 5 17β-HSD was evaluated by transfecting 293 cells with vectors which included the gene encoding human type 5 17β-HSD.

SMILES: C[C@]12CCC(=O)C=C1CC[C@@H]1[C@@H]2CC[C@]2(C)C(=O)CC[C@@H]12 [Δ^4dione, 4-androstene-3,17-dione]
- 17β-HSD activity (Δ4-dione converted to testosterone): high

SMILES: C[C@]12CCC(=O)C[C@@H]1CC[C@@H]1[C@@H]2CC[C@]2(C)[C@@H](O)CC[C@@H]12 [DHT, dihydrotestosterone]
- 3α-HSD activity (transformation of DHT to 5α-androstane-3α,17β-diol): negligible

SMILES: C[C@]12CC[C@@H]3c4ccc(O)cc4CC[C@H]3[C@@H]1CC[C@@H]2O [E2, estradiol]
- ability of the enzyme to transform E1 and E2: negligible

SMILES: CC(=O)[C@H]1CC[C@H]2[C@@H]3CCC4=CC(=O)CC[C@]4(C)[C@H]3CC[C@]12C [progesterone]
- reductive 20α-HSD activity (progesterone transformed to 20α-OH-P): high

Reference: patent US6124115A, “Production and use of isolated type 5 17β-hydroxysteroid dehydrogenase” (Endorecherche Inc., priority 1995, dated 2000)
